Data on two molecules can be found in ChEMBL document CHEMBL2380233, “Addition of artificial salt bridge by Ile646Lys mutation in gp41 coiled-coil domain regulates 6-helical bundle formation” (Bioorg Med Chem Lett, 2013).

A word on the IC50: it is the point on the concentration scale where inhibition reaches its midpoint. A lower IC50 goes with higher potency.

SMILES strings stand for the structures.

For assay [1], the system named is Human immunodeficiency virus 1. In words: Antiviral activity against HIV1 JRFL infected in HEK293T cells by luciferase reporter gene assay. The conditions noted are these: Human immunodeficiency virus 1, JRFL, HEK-293T. In kind it is functional, organism-based. On the technique in general: Reporter assays use an easily measured gene product as a stand-in for the process of interest.

The test system of assay [2] is Human immunodeficiency virus 1. Briefly: Antiviral activity against HIV1 HXB2 infected in HEK293T cells by luciferase reporter gene assay. It is filed as functional, organism-based. Conditions: Human immunodeficiency virus 1, HXB2, HEK-293T.
Assay [3] relates to Human immunodeficiency virus 1. Briefly: Antiviral activity against HIV1 CNE3 infected in HEK293T cells by luciferase reporter gene assay. Conditions: Human immunodeficiency virus 1, CNE3, HEK-293T. It is filed as functional, organism-based.
Assay [4] concerns Human immunodeficiency virus 1. Briefly: Antiviral activity against HIV1 SF162 infected in HEK293T cells by luciferase reporter gene assay. It is filed as functional, cell-based. Conditions: Human immunodeficiency virus 1, SF162 ISOLATE, HEK-293T.

Regarding `CC[C@H](C)[C@H](NC(=O)[C@H](CCC(=O)O)NC(=O)[C@H](CCCNC(=N)N)NC(=O)[C@H](CC(=O)O)NC(=O)[C@H](Cc1c[nH]c2ccccc12)NC(=O)[C@H](CCC(=O)O)NC(=O)[C@H](CCSC)NC(=O)[C@H](Cc1c[nH]c2ccccc12)NC(C)=O)C(=O)N[C@@H](CC(N)=O)C(=O)N[C@@H](CC(N)=O)C(=O)N[C@@H](Cc1ccc(O)cc1)C(=O)N[C@H](C(=O)N[C@@H](CO)C(=O)N[C@@H](CC(C)C)C(=O)N[C@H](C(=O)N[C@@H](Cc1cnc[nH]1)C(=O)N[C@@H](CO)C(=O)N[C@@H](CC(C)C)C(=O)N[C@@H](CCCCN)C(=O)N[C@@H](CCC(=O)O)C(=O)N[C@@H](CCC(=O)O)C(=O)N[C@@H](CO)C(=O)N[C@@H](CCC(N)=O)C(=O)N[C@@H](CC(N)=O)C(=O)N[C@@H](CCC(N)=O)C(=O)N[C@@H](CCC(N)=O)C(=O)N[C@@H](CCC(=O)O)C(=O)N[C@@H](CCCCN)C(=O)N[C@@H](CC(N)=O)C(=O)N[C@@H](CCC(=O)O)C(=O)N[C@@H](CCC(N)=O)C(=O)N[C@@H](CCC(=O)O)C(=O)N[C@@H](CC(C)C)C(=O)N[C@@H](CC(C)C)C(N)=O)[C@@H](C)CC)[C@@H](C)O`, the IC50 turned out to be 920 nM in assay [1], 94 nM in assay [2], 550 nM in assay [3] and 520 nM in assay [4].

`CC[C@H](C)[C@H](NC(=O)[C@H](CCC(=O)O)NC(=O)[C@H](CCCNC(=N)N)NC(=O)[C@H](CC(=O)O)NC(=O)[C@H](Cc1c[nH]c2ccccc12)NC(=O)[C@H](CCC(=O)O)NC(=O)[C@H](CCSC)NC(=O)[C@H](Cc1c[nH]c2ccccc12)NC(C)=O)C(=O)N[C@@H](CC(N)=O)C(=O)N[C@@H](CC(N)=O)C(=O)N[C@@H](Cc1ccc(O)cc1)C(=O)N[C@H](C(=O)N[C@@H](CO)C(=O)N[C@@H](CC(C)C)C(=O)N[C@H](C(=O)N[C@@H](Cc1cnc[nH]1)C(=O)N[C@@H](CO)C(=O)N[C@@H](CC(C)C)C(=O)N[C@@H](CCC(=O)O)C(=O)N[C@@H](CCC(=O)O)C(=O)N[C@@H](CCC(=O)O)C(=O)N[C@@H](CO)C(=O)N[C@@H](CCC(N)=O)C(=O)N[C@@H](CC(N)=O)C(=O)N[C@@H](CCC(N)=O)C(=O)N[C@@H](CCC(N)=O)C(=O)N[C@@H](CCC(=O)O)C(=O)N[C@@H](CCCCN)C(=O)N[C@@H](CC(N)=O)C(=O)N[C@@H](CCC(=O)O)C(=O)N[C@@H](CCC(N)=O)C(=O)N[C@@H](CCC(=O)O)C(=O)N[C@@H](CC(C)C)C(=O)N[C@@H](CC(C)C)C(N)=O)[C@@H](C)CC)[C@@H](C)O`: the IC50 in assay [1] is 1190 nM; in assay [2] it was 1310 nM; in assay [3], 470 nM; in assay [4], 1430 nM.
